The structures appear in SMILES notation.

From ChEMBL document CHEMBL4811258, “Potent Antimalarials with Development Potential Identified by Structure-Guided Computational Optimization of a Pyrrole-Based Dihydroorotate Dehydrogenase Inhibitor Series” (J Med Chem, 2021) come the findings set out here.

Data set [1] can be described thus: Oral bioavailability in Sprague-Dawley rat at 17 mg/kg measured up to 24 hrs. The settings on record: in vivo. Format: ADME, organism-based.
The nature of data set [2]: Half life in Swiss mouse at […], po measured up to 24 hrs by LC-MS analysis. Type of data set: ADME, organism-based. The settings on record: in vivo, dose 2.6 mg/kg.
The test system of data set [3] is Plasmodium falciparum. Description: Antiplasmodial activity against Plasmodium falciparum 3D7 Uganda infected in human erythrocytes assessed as parasite killing using albumax media measured after 72 hrs by SYBR Green assay. Type of data set: functional, organism-based. The settings on record: 3D7, 72 h.
In data set [4] the target is Dihydroorotate dehydrogenase (quinone), mitochondrial (Mus musculus, UniProt O35435). Description: Inhibition of mouse DHODH up to 100 uM. The settings on record: up to 100 µM.
Dihydroorotate dehydrogenase (quinone), mitochondrial, sequence (O35435 whole entry): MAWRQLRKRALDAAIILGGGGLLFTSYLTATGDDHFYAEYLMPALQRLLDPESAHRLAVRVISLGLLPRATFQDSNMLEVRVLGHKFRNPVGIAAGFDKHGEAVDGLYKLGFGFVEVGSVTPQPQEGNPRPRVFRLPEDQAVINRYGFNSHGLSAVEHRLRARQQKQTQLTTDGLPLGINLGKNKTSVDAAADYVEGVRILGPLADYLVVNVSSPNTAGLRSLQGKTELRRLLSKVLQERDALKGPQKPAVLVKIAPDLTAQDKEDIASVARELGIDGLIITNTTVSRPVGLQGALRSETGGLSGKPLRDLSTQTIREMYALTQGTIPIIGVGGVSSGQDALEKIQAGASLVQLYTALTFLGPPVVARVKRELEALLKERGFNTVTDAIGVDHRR
Data set [5] deals with Plasmodium falciparum. Kind of data set: Antiplasmodial activity against Plasmodium falciparum Dd2 Uganda infected in human erythrocytes assessed as parasite killing using albumax media measured after 72 hrs by SYBR Green assay. Format: functional, organism-based. The settings on record: Dd2, 72 h.
Data set [6] in a line: Volume of distribution at steady state in Swiss mouse at […], iv measured up to 24 hrs by LC-MS analysis. Type of data set: ADME, organism-based. The settings on record: in vivo, dose 2.3 mg/kg, read-out: Vdss.
Data set [7] relates to Plasmodium falciparum. Kind of data set: Antiplasmodial activity against asexual blood stage Plasmodium falciparum D10 expressing yeast DHODH infected in human erythrocytes assessed as parasite killing in presence of proguanil. Format: functional, organism-based.
For data set [8] the following is noted: rat, plasma.
A further data set relates to HepG2. Kind of data set: Cytotoxicity against human HepG2 cells. Format: cell-based.
For data set [9] the following is noted: human, caco-2, pH 7.4.
Data set [10] in a line: Volume of distribution at steady state in Sprague-Dawley rat at […], iv measured up to 24 hrs. The settings on record: in vivo, dose 1.8 mg/kg, read-out: Vdss. Format: ADME, organism-based.
Data set [11] is described as follows: Inhibition of dog DHODH up to 100 uM. On the set-up: species or system Canis lupus familiaris. The settings on record: up to 100 µM.
Data set [12] in a line: Half life in Swiss mouse at 24 mg/kg, po measured up to 24 hrs by LC-MS analysis. Format: ADME, organism-based. The settings on record: in vivo.

As usually defined, the half-life is how long it takes for the measured level to halve. Broadly, the EC50 is the concentration at which the effect is half-maximal. Turning to `Cc1c(C2(c3ccc(C(F)(F)F)nc3)CC2)c[nH]c1C(=O)NC(C)c1nc[nH]n1` (stereo in doubt; form 1), in data set [1], the bioavailability worked out at 110%. Moreover, the half-life at 24 h in data set [2] was 3.4 h. Also, the EC50 with Plasmodium falciparum [3] was 7.5 nM; in the data set on Plasmodium falciparum [5] it was 6.9 nM; in the data set on Plasmodium falciparum [7] it was over 10000 nM. For the same compound, the “inhibition (INH)” value in data set [4] and in data set [11] was “Not Active” each time. Further, the Vd at 24 h in data set [6] was determined as 1.3 L/kg; in data set [10] it was 2.1 L/kg. Moreover, the PPB in data set [8] turned out to be 94.3%. Further, the Activity result in the data set with HepG2 was “Non-Toxic”. Further, in [9], the Papp is reported as 70 10^-6 cm/s. The compound also displayed a t1/2 in [12] of 4.5 h.
